Experimental data published in PMC10294756 (Journal of Enzyme Inhibition and Medicinal Chemistry, 2023).
Where two headings read alike, the source gives them in different places.

Key:
[1] = test system: HepG2; assay: MTT assay, HepG2 cells; assay type: cell-based, human; conditions: for IC50: read-out: IC50 HepG2
[2] = test system: HuH7; assay: MTT assay, HuH7 cells; assay type: cell-based, human; conditions: read-out: IC50 HuH7
[3] = test system: SMMC-7721; assay: MTT assay, SMMC-7721 cells; assay type: cell-based, human; conditions: read-out: IC50 SMMC-7721
[4] = test system: LO2; assay: MTT assay, normal hepatocyte LO2; assay type: cell-based, human
[5] = test system: HCC cell lines (HepG2, HuH7, and SMMC-7721); assay: MTT assay, results stated over the three HCC cell lines; assay type: cell-based; conditions: Homo sapiens, 48 h, read-out: IC50 against HCC cells (span over cell lines)
[6] = Homo sapiens, L02, 48 h, read-out: IC50 LO2, normal liver cell line, MTT, 48 h
[7] = MTT, 48 h, mean ± SD of three experiments
[8] = read-out: IC50 LO2, normal liver cell line, MTT, 48 h

## Cc1cc(Nc2ccc(C(=O)N/N=C/c3csc4ccccc34)cc2)c2cccc(O)c2n1 [7V, (E)-N'-(benzo[b]thiophen-3-ylmethylene)-4-((8-hydroxy-2-methylquinolin-4-yl)amino)benzohydrazide]
[1]; Homo sapiens, HepG2, 48 h
  IC50: 13.7 ± 2.85 µM
[2]; Homo sapiens, Huh-7, 48 h
  IC50: 20.4 ± 2.75 µM
[3]; Homo sapiens, SMMC-7721, 48 h
  IC50: 21.7 ± 1.96 µM
[4]; [6]
  IC50: 3.06 ± 0.11 µM

## CC1=C(O)C(=O)C=C2C1=CC=C1[C@@]2(C)CC[C@@]2(C)[C@@H]3C[C@](C)(C(=O)O)CC[C@]3(C)CC[C@]12C [Celastrol, reference compound]
[1]; Homo sapiens, HepG2, 48 h
  IC50: 18.6 ± 1.01 µM
[2]; Homo sapiens, Huh-7, 48 h
  IC50: 34.9 ± 2.21 µM
[3]; Homo sapiens, SMMC-7721, 48 h
  IC50: 16 ± 3.28 µM

## Cc1cc(Nc2ccc(C(=O)N/N=C/c3cc(Br)cs3)cc2)c2cccc(O)c2n1 [7C, (E)-N'-((4-bromothiophen-2-yl)methylene)-4-((8-hydroxy-2-methylquinolin-4-yl)amino)benzohydrazide]
[1]; Homo sapiens, HepG2, 48 h
  IC50: 16.4 ± 0.7 µM
[2]; Homo sapiens, Huh-7, 48 h
  IC50: 21.2 ± 2.28 µM
[3]; Homo sapiens, SMMC-7721, 48 h
  IC50: 16 ± 0.54 µM
[4]; [6]
  IC50: 21 ± 1.18 µM
[5]
  IC50: < 30 µM

## COc1ccc(F)c(/C=N/NC(=O)c2ccc(Nc3cc(C)nc4c(O)cccc34)cc2)c1 [7K, (E)-N'-(2-fluoro-5-methoxybenzylidene)-4-((8-hydroxy-2-methylquinolin-4-yl)amino)benzohydrazide]
[1]; Homo sapiens, HepG2, 48 h
  IC50: 20.1 ± 1.18 µM
[2]; Homo sapiens, Huh-7, 48 h
  IC50: 34.6 ± 2.97 µM
[3]; Homo sapiens, SMMC-7721, 48 h
  IC50: 28.2 ± 2.06 µM

## Cc1cc(Nc2ccc(C(=O)N/N=C/c3sccc3Br)cc2)c2cccc(O)c2n1 [7B, (E)-N'-((3-bromothiophen-2-yl)methylene)-4-((8-hydroxy-2-methylquinolin-4-yl)amino)benzohydrazide]
[1]; Homo sapiens, HepG2, 48 h
  IC50: 16.2 ± 1.53 µM
[2]; Homo sapiens, Huh-7, 48 h
  IC50: 18 ± 1.26 µM
[3]; Homo sapiens, SMMC-7721, 48 h
  IC50: 26.1 ± 1 µM
[4]; [6]
  IC50: > 90 µM
[5]
  IC50: < 30 µM

## CSc1ccc(/C=N/NC(=O)c2ccc(Nc3cc(C)nc4c(O)cccc34)cc2)cc1 [7E, (E)-4-((8-hydroxy-2-methylquinolin-4-yl)amino)-N'-(4-(methylthio)benzylidene)benzohydrazide]
[1]; Homo sapiens, HepG2, 48 h
  IC50: 17.7 ± 0.3 µM
[2]; Homo sapiens, Huh-7, 48 h
  IC50: 25.6 ± 1.81 µM
[3]; Homo sapiens, SMMC-7721, 48 h
  IC50: 22.94 ± 0.03 µM
[4]; [6]
  IC50: > 90 µM

## Cc1cc(Nc2ccc(C(=O)N/N=C/c3cc(C(F)(F)F)ccc3F)cc2)c2cccc(O)c2n1 [7P, (E)-N'-(2-fluoro-5-(trifluoromethyl)benzylidene)-4-((8-hydroxy-2-methylquinolin-4-yl)amino)benzohydrazide]
[1]; Homo sapiens, HepG2, 48 h
  IC50: 7.78 ± 1.33 µM
[2]; Homo sapiens, Huh-7, 48 h
  IC50: 19.3 ± 1.49 µM
[3]; Homo sapiens, SMMC-7721, 48 h
  IC50: 8.82 ± 0.41 µM
[4]; [6]
  IC50: 18 ± 1.55 µM
[5]
  IC50: 7.78 to 19.3 µM

## Cc1cc(Nc2ccc(C(=O)N/N=C/c3ccccc3Cl)cc2)c2cccc(O)c2n1 [7F, (E)-N'-(2-chlorobenzylidene)-4-((8-hydroxy-2-methylquinolin-4-yl)amino)benzohydrazide]
[1]; Homo sapiens, HepG2, 48 h
  IC50: 13.6 ± 2.14 µM
[2]; Homo sapiens, Huh-7, 48 h
  IC50: 22.3 ± 1.88 µM
[3]; Homo sapiens, SMMC-7721, 48 h
  IC50: 17.9 ± 1.03 µM
[4]; [6]
  IC50: 15 ± 2.16 µM

## Cc1cc(Nc2ccc(C(=O)N/N=C/c3ccc(C(F)(F)F)cc3)cc2)c2cccc(O)c2n1 [7H, (E)-4-((8-hydroxy-2-methylquinolin-4-yl)amino)-N'-(4-(trifluoromethyl)benzylidene)benzohydrazide]
[1]; Homo sapiens, HepG2, 48 h
  IC50: 18.1 ± 0.98 µM
[2]; Homo sapiens, Huh-7, 48 h
  IC50: 23.3 ± 0.33 µM
[3]; Homo sapiens, SMMC-7721, 48 h
  IC50: 27.68 ± 0.25 µM
[4]; [6]
  IC50: > 90 µM

## Cc1cc(Nc2ccc(C(=O)N/N=C/c3cccc(Br)n3)cc2)c2cccc(O)c2n1 [7R, (E)-N'-((6-bromopyridin-2-yl)methylene)-4-((8-hydroxy-2-methylquinolin-4-yl)amino)benzohydrazide]
[1]; Homo sapiens, HepG2, 48 h
  IC50: 30 ± 0.92 µM
[2]; Homo sapiens, Huh-7, 48 h
  IC50: 32.2 ± 4.3 µM
[3]; Homo sapiens, SMMC-7721, 48 h
  IC50: 45.8 ± 0.64 µM
[5]
  IC50: 30 to 45.8 µM

## Cc1cc(Nc2ccc(C(=O)N/N=C/c3cc4ccccc4nc3Cl)cc2)c2cccc(O)c2n1 [7U, (E)-N'-((2-chloroquinolin-3-yl)methylene)-4-((8-hydroxy-2-methylquinolin-4-yl)amino)benzohydrazide]
[1]; Homo sapiens, HepG2, 48 h
  IC50: 17.6 ± 1.09 µM
[2]; Homo sapiens, Huh-7, 48 h
  IC50: 30.9 ± 3.39 µM
[3]; Homo sapiens, SMMC-7721, 48 h
  IC50: 19.9 ± 0.94 µM
[4]; [6]
  IC50: 18 ± 1.29 µM

## Cc1cc(Nc2ccc(C(=O)N/N=C/c3ccc(Br)c(F)c3)cc2)c2cccc(O)c2n1 [7M, (E)-N'-(4-bromo-3-fluorobenzylidene)-4-((8-hydroxy-2-methylquinolin-4-yl)amino)benzohydrazide]
[1]; Homo sapiens, HepG2, 48 h
  IC50: 15.8 ± 3.68 µM
[2]; Homo sapiens, Huh-7, 48 h
  IC50: 23.8 ± 1.82 µM
[3]; Homo sapiens, SMMC-7721, 48 h
  IC50: 18.2 ± 1.94 µM
[4]; [6]
  IC50: > 90 µM
[5]
  IC50: 15.8 to 27.6 µM

## Cc1cc(Nc2ccc(C(=O)N/N=C/c3cccc(F)c3F)cc2)c2cccc(O)c2n1 [7L, (E)-N'-(2,3-difluorobenzylidene)-4-((8-hydroxy-2-methylquinolin-4-yl)amino)benzohydrazide]
[1]; Homo sapiens, HepG2, 48 h
  IC50: 21 ± 1.51 µM
[2]; Homo sapiens, Huh-7, 48 h
  IC50: 15.9 ± 2.8 µM
[3]; Homo sapiens, SMMC-7721, 48 h
  IC50: 25.4 ± 1.63 µM
[4]; [6]
  IC50: 25 ± 3.16 µM

## Cc1cc(Nc2ccc(C(=O)N/N=C/c3cccc(C(F)(F)F)c3)cc2)c2cccc(O)c2n1 [7G, (E)-4-((8-hydroxy-2-methylquinolin-4-yl)amino)-N'-(3-(trifluoromethyl)benzylidene)benzohydrazide]
[1]; Homo sapiens, HepG2, 48 h
  IC50: 15.5 ± 1.45 µM
[2]; Homo sapiens, Huh-7, 48 h
  IC50: 6.88 ± 2.04 µM
[3]; Homo sapiens, SMMC-7721, 48 h
  IC50: 20.6 ± 2.56 µM
[4]; [6]
  IC50: 19.9 ± 2.01 µM

## N.N.[Cl][Pt][Cl] [CDDP, Cisplatinum, reference compound]
[1]; [7]
  IC50: 2.21 ± 0.35 µM
[2]; [7]
  IC50: 3.69 ± 0.55 µM
[3]; [7]
  IC50: 1.58 ± 0.08 µM
[4]; [8]
  IC50: 4.23 ± 0.52 µM

## Cc1cc(Nc2ccc(C(=O)N/N=C/c3ccc(F)c(C(F)(F)F)c3)cc2)c2cccc(O)c2n1 [7Q, (E)-N'-(4-fluoro-3-(trifluoromethyl)benzylidene)-4-((8-hydroxy-2-methylquinolin-4-yl)amino)benzohydrazide]
[1]; Homo sapiens, HepG2, 48 h
  IC50: 12.7 ± 1.61 µM
[2]; Homo sapiens, Huh-7, 48 h
  IC50: 29.2 ± 3.24 µM
[3]; Homo sapiens, SMMC-7721, 48 h
  IC50: 21.6 ± 1.13 µM
[4]; [6]
  IC50: 4.82 ± 0.67 µM

## Cc1cc(Nc2ccc(C(=O)N/N=C/c3ccsc3)cc2)c2cccc(O)c2n1 [7A, (E)-4-((8-hydroxy-2-methylquinolin-4-yl)amino)-N'-(thiophen-3-ylmethylene)benzohydrazide]
[1]; Homo sapiens, HepG2, 48 h
  IC50: 30.8 ± 2.52 µM
[2]; Homo sapiens, Huh-7, 48 h
  IC50: 31.7 ± 3.6 µM
[3]; Homo sapiens, SMMC-7721, 48 h
  IC50: 52.8 ± 1.56 µM
[5]
  IC50: 30.8 to 52.8 µM

## C#Cc1ccc(/C=N/NC(=O)c2ccc(Nc3cc(C)nc4c(O)cccc34)cc2)cc1 [7I, (E)-N'-(4-ethynylbenzylidene)-4-((8-hydroxy-2-methylquinolin-4-yl)amino)benzohydrazide]
[1]; Homo sapiens, HepG2, 48 h
  IC50: 28.3 ± 1.17 µM
[2]; Homo sapiens, Huh-7, 48 h
  IC50: 12.8 ± 0.36 µM
[3]; Homo sapiens, SMMC-7721, 48 h
  IC50: 33.9 ± 3.58 µM

## Cc1cc(Nc2ccc(C(=O)N/N=C/c3ccc(F)cc3Br)cc2)c2cccc(O)c2n1 [7O, (E)-N'-(2-bromo-4-fluorobenzylidene)-4-((8-hydroxy-2-methylquinolin-4-yl)amino)benzohydrazide]
[1]; Homo sapiens, HepG2, 48 h
  IC50: 15.7 ± 1.31 µM
[2]; Homo sapiens, Huh-7, 48 h
  IC50: 13.7 ± 0.61 µM
[3]; Homo sapiens, SMMC-7721, 48 h
  IC50: 16.9 ± 1.97 µM
[4]; [6]
  IC50: 69.2 ± 4.58 µM

## Cc1cc(Nc2ccc(C(=O)N/N=C/c3ccc(F)c(Br)c3)cc2)c2cccc(O)c2n1 [7N, (E)-N'-(3-bromo-4-fluorobenzylidene)-4-((8-hydroxy-2-methylquinolin-4-yl)amino)benzohydrazide]
[1]; Homo sapiens, HepG2, 48 h
  IC50: 27.6 ± 0.81 µM
[2]; Homo sapiens, Huh-7, 48 h
  IC50: 15.4 ± 2.09 µM
[3]; Homo sapiens, SMMC-7721, 48 h
  IC50: 21.1 ± 1.01 µM
[4]; [6]
  IC50: > 90 µM
[5]
  IC50: 15.8 to 27.6 µM

## Cc1cc(Nc2ccc(C(=O)N/N=C/c3ccc4ccccc4c3)cc2)c2cccc(O)c2n1 [7S, (E)-4-((8-hydroxy-2-methylquinolin-4-yl)amino)-N'-(naphthalen-2-ylmethylene)benzohydrazide]
[1]; Homo sapiens, HepG2, 48 h
  IC50: 15.6 ± 1.65 µM
[2]; Homo sapiens, Huh-7, 48 h
  IC50: 16.2 ± 0.66 µM
[3]; Homo sapiens, SMMC-7721, 48 h
  IC50: 22.3 ± 0.98 µM
[4]; [6]
  IC50: > 60 µM
[4]; [8]
  IC50: 66.3 ± 8.68 µM
[5]
  IC50: 15 to 23.9 µM

## COc1ccc(/C=N/NC(=O)c2ccc(Nc3cc(C)nc4c(O)cccc34)cc2)c2ccccc12 [7T, (E)-4-((8-hydroxy-2-methylquinolin-4-yl)amino)-N'-((4-methoxynaphthalen-1-yl)methylene)benzohydrazide]
[1]; Homo sapiens, HepG2, 48 h
  IC50: 15 ± 4.75 µM
[2]; Homo sapiens, Huh-7, 48 h
  IC50: 20.9 ± 2.46 µM
[3]; Homo sapiens, SMMC-7721, 48 h
  IC50: 23.9 ± 2.16 µM
[4]; [6]
  IC50: > 60 µM
[4]; [8]
  IC50: 60.7 ± 0.98 µM
[5]
  IC50: 15 to 23.9 µM

## Oc1ccc(C(c2c[nH]c3ccccc23)c2c[nH]c3ccccc23)cc1 [CDIM8, reference compound]
[1]; 20 μM CDIM8, 5 μM TMHA37, 48 h, MTT
  effect on the inhibition of HepG2 cell proliferation by TMHA37: significantly reversed the inhibitory effect of TMHA37 on HepG2 cell proliferation

## COc1cc(/C=N/NC(=O)c2ccc(Nc3cc(C)nc4c(O)cccc34)cc2)cc(OC)c1 [7J, (E)-N’-(3,5-dimethoxybenzylidene)-4-((8-hydroxy-2-methylquinolin-4-yl)amino)benzohydrazide]
[1]; Homo sapiens, HepG2, 48 h
  IC50: 27.5 ± 2.12 µM
[2]; Homo sapiens, Huh-7, 48 h
  IC50: 26 ± 0.54 µM
[3]; Homo sapiens, SMMC-7721, 48 h
  IC50: 37.2 ± 2.23 µM
